The test system of series [1] is TNFα. Kind of series: TNFα mRNA in LPS stimulated BV2 cells (PCR). As to conditions: BV2, LPS 100 ng/mL, 24 h, 1-100 nM. The class given is cell-based, murine. The procedure:
(§1) HMEC and BV2 samples were then collected with TRIzol for polymerase chain reaction (PCR) analysis. In brief, samples were subjected to a freeze-thaw cycle with TRIzol followed by the addition of 200 μL of chloroform (Thermo Fisher Scientific). The samples were shaken and placed in ice for 15 min. To aid in the separation of aqueous and organic layers, samples were centrifuged for 15 min at 15,000 g. The aqueous solution was collected and isopropanol was added to each sample (500 μL; Thermo Fisher Scientific). Samples were centrifuged again for 15 min at 15,000 g then washed with 75% ethanol in DEPC-treated water.
(§2) RNA content was determined through Nanodrop and equivalent amount of RNA from each sample were converted to complementary DNA (Applied Biosystems, Foster City, CA). PCR analysis was performed on STEP ONE PLUS® real-time PCR system (Applied Biosystems) with Fast SYBR Green reagent. PCR primers for VEGF-A, GAPDH, and IL-1β were obtained from Bio-Rad Laboratories (Hercules, CA). Primers were purchased from Integrated DNA Technologies (Coralville, IA). Primers for TNFα were: […]

The test system of another series is IL-1β. In words: IL-1β mRNA in LPS stimulated BV2 cells (PCR). The class given is cell-based, murine. The procedure: as §1, §2
The subject of series [2] is VEGF-A. Kind of series: VEGF-A mRNA in HMECs (PCR). The format is cell-based, human. The procedure: as §1, §2
In another series the test system is HMECs. In words: HMEC Matrigel tube formation assay. As to conditions: 24 h pretreatment, imaged after 7 h on Matrigel. The class given is cell-based, human. How it is done:
HMECs were seeded onto 12-well plates at a density of 1×10^5 cells/mL and allowed to grow to confluency. […] After 24 h of treatment, cells were collected by detaching them with trypsin, collecting the resulting cell suspension, and centrifuging at 300 g for 5 min. Tube formation assay was performed according to protocol provided by Lonza.
In brief, on the day of the assay, 96-well plates were coated with 75 μL of phenol-free […]® and left to polymerize at 37° C. for 20 min. The cell pellets were re-suspended with 300 μL of media and 75 μL of the solution (400,000 cells/mL) were seeded onto each […]®-coated wells.

Series [3] deals with choroidal neovascularization (CNV). In words: Laser-induced CNV mouse model, CNV area. The class given is in vivo, C57BL/6J mice. How it is done: Prior to laser induction of CNV, a cocktail of ketamine/xylazine/acepromazine (100 mg/kg of ketamine, 20 mg/kg of xylazine, and 3 mg/kg of acepromazine) was injected intraperitoneally to anesthetize the animals. Animals were then treated with a drop of topical 2.5% Phyenylephrine Hydrochloride ophthalmic solution followed by 0.5% Tetracaine hydrochloride ophthalmic solution for pupil dilation. A Micron III SLO (Phoenix Research Labs, Pleasanton, CA) was used to image the fundus and focus the attached laser system (Phoenix Research Labs). Four equidistantly placed laser burns in the Bruch's membrane were created with a laser power setting of 240 mW at a duration of 70 ms.
In brief, a 30G insulin syringe was used to create an injection opening in the sclera. A 10 μL Hamilton syringe was then used to administer the treatment directly into the vitreous cavity. After treatment, animals were given topical ocular antibiotic (gentamicin and prednisolone acetate ophthalmic ointment) to prevent infection. Animals were then sacrificed at set time points post treatment (7 and 14 days) for imaging and biochemical analysis.
(§3) At set time points, animals were sacrificed and the enucleated eyes fixed in 4% paraformaldehyde for 1 h. The choroid and retina are then dissected out. Tissues were blocked and permeabilized through 2 h incubation with a solution of 5% normal goat serum, 0.3% Triton X-100, and 1% bovine serum albumin at room temperature under constant agitation. To visualize macrophage, tissues were stained with anti-Iba1 antibody (1:100; FUJIFILM® Wako Chemicals, Osaka, Japan) followed by ALEXA FLUOR® 405-labeled goat anti-rabbit secondary antibody (1:200; Abcam, MA, USA). Blood vessels were stained with FITC-labeled isolectin (GS IB4) (1:100; Life Technologies, Eugene, OR, USA).
(§4) Flat-mounts were created by making four radial incisions on the tissue and mounting the relaxed tissues on coverslips. CNV formation was imaged with confocal 710 microscope (Carl Zeiss, Oberkochen, Germany) for biodistribution, and with an Axiovert phase contrast microscope for area calculation.

For series [4], the system named is VEGF-A. In words: Choroid VEGF-A protein by ELISA, CNV mouse model. The format is in vivo. How it is done: Eyes were dissected immediately after enucleation without fixation. The choroid was collected and stored at −80° C. prior to analysis. For ELISA analysis, choroids were immersed in T-PER protein extraction buffer (Thermo Fisher Scientific) and homogenized with 0.9-2.0 mm stainless steel beads on a Bullet Blender Storm tissue homogenizer (Next Advantage Inc., Averill Park, NY). The supernatant was centrifuged to collect the aqueous solution. The samples were stored in −80° C. and used without further processing for ELISA detection of VEGF-A levels.

Series [5] concerns VEGF-A. Kind of series: Choroid VEGF-A mRNA by PCR, CNV mouse model. The format is in vivo. As to conditions: day 14. The procedure:
(§5) For PCR, choroids were immersed in TRIzol, homogenized with steel beads, and filtered through Corning COSTAR SPIN-X® centrifuge tube filters (Sigma-Aldrich) to remove tissue solids. The RNA was isolated following the previously described protocol and the RNA concentration was determined through Nanodrop. Equivalent amounts of RNA were converted to complementary DNA (cDNA) and analyzed with Fast SYBR Green reagent through the STEP ONE PCR® system.

Series [6] concerns TNFα. In words: Choroid TNFα mRNA by PCR, CNV mouse model. The format is in vivo. How it is done:
as §5

Series [7] concerns CNV area (macrophages, endothelial cells). In words: In vivo distribution and colocalization, CNV mouse model. How it is done: For biodistribution studies, 1 μg of Cy5-D-miR126-Cy3 or miR-126-Cy3 on a nucleic acid basis (at concentration of 1 μg/μL) were administered to the animals in accordance to the above steps. Tissues were extracted at set time points (1, 3, 5, 7, 14 days post-treatment).
as §3, §4
To assess uptake and distribution, Cy3 labeled miR-126 and dually labeled Cy5-D-miR126-Cy3 were injected into laser CNV mouse models and choroids were collected at 1, 3, 5, 7, 14 days post-injection. Iba1 staining was used to visualize the intracellular environment of macrophage, and isolectin GS-IB4 was used to stain for both blood vessels and macrophages.

Where [8] appears, read: 24 h post-injection (earliest time point).

For the substance “miR-126: sense 5′-UCGUACCGUGAGUAAUAAUGCG-3′ (SEQ ID NO: 4); antisense 5′-CGCAUUAUUACUCACGGUACGA-[Thiol C6 S—S]-3′ (SEQ ID NO: 5) (3' thiol C6 S-S on antisense; misc_feature 22 3' end linked to Thiol-Modifier C6 S-S)”, in the series on TNFα [1], the “knockdown of TNFα” value is listed as roughly 50%. Moreover, in the series on IL-1β, the “concentration with the higher/high IL-1β knockdown effect” value was 10 nM. Also, the “dose response of IL-1β knockdown” value with IL-1β (1-100 nM) was “inverse dose response”. The “doses repressing VEGF-A at the same level as lower doses of D-miR126” value in the series on VEGF-A [2] was 10 to 100 nM. In addition, the “knockdown of VEGF-A production” value in the series with VEGF-A [2] (24 h, full-serum) is given as roughly 20%. Moreover, the network formation result in the series on HMECs is given as “disruption of network formation”. The CNV area in [3] (day 7, one intravitreal dose on day of CNV induction) is ~8,000 μm^2. Moreover, in series [3] (day 14), the “CNV area decrease (significance)” value was “insignificant decrease” and the “reduction of CNV area compared to the control” value is given as roughly 10%. The CNV area in series [3] (day 14, one intravitreal dose) is reported as ~8,000 μm^2. Further, the “VEGF-A protein vs untreated” value in the series with VEGF-A [4] (day 7) is “significant decrease”. For the same substance, the “VEGF levels, treated vs untreated animals” value in the series on VEGF-A [4] (day 14) is listed as “no differences”. For the same substance, the “VEGF-A mRNA levels” value with VEGF-A [5] is “still reduced”. Also, in the series with TNFα [6] (7 days, not statistically significant), the “TNFα mRNA” value is “elevated”. Further, the “TNFα mRNA” value with TNFα [6] (14 days) was “suppressed TNFα”. Also, in [7] (setting [8]), the “fraction of Cy3 (miR-126) signal colocalized with Iba1 (macrophages)” value is reported as “around 2%” and the “fraction of signal in combined macrophage/endothelial population (isolectin GS-IB4)” value is listed as “around 3%”. Moreover, the “time in the CNV target area” value in series [7] (intravitreal, confocal microscopy) is recorded as “up to 7 days”. Moreover, in [7] (peak at 5 days), the “fraction of signal colocalized within macrophages” value is roughly 10% and the “fraction of signal within combined macrophage/endothelial population” value is roughly 15%.

The values above are taken from patent US20250135012A1, “DENDRIMER CONJUGATES OF SMALL MOLECULE BIOLOGICS FOR INTRACELLULAR DELIVERY” (The Johns Hopkins University, priority 2021, published 2025).
